# What was measured:
# [1] = system: platelets; experiment: Platelet aggregation (ADP and collagen), aggregometer; type: cell-based, human; details: 100 μM compound, 5 Joules/cm^2, 5 days storage; FIG. 21B
# Method: To measure the effects of the present compounds and methods of decontamination on platelet function using these four indicators, four samples were prepared for each compound tested, two control samples and two containing compound. Three units of human platelets were obtained from the Sacramento Blood Center, Sacramento, Calif. These were each transferred under sterile conditions to 50 ml centrifuge tubes, then aliquots of each unit were transferred into a second set of 50 ml sterile centrifuge tubes. To each centrifuge tube containing platelet concentrate (PC), an aliquot of compound stock was added to reach a final concentration of 100 μM of compound. […] The samples were pipetted gently up and down to mix. Then aliquots (either 3 ml or 8 ml) of each sample was transferred to two sterile Teflon™ Medi-bags™ (American Fluoroseal Co., Silver Springs, Md.) (presently owned by The West Company, Lionville, Pa.). Samples were treated in one of two different sized bags, having either 3 ml or 8 ml capacity. […] For each compound tested, two control samples without compound were prepared by again removing aliquots of platelet concentrate (17 ml if using an 8 ml bag, 4 ml if using a 3 ml bag) from the same one of the first set of 50 ml centrifuge tubes from which the compound sample was drawn, and dividing into Medibags, as before. […]
# [2] = system: Pseudomonas; experiment: Bacterial inactivation, colony forming units; type: cell-based; details: 16 μM; 5 J/cm^2 irradiation; starting titer 6.5 logs
# Method: The bacteria, a strain of Pseudomonas, was inoculated into LB with a sterile loop and grown overnight in a shaker at 37° C. Based on the approximation that one OD at 610 mn is equivalent to 5×10^8 colony forming units (cfu)/mL, a 1:10 dilution of the culture was measured on a spectrophotometer, (manufactured by Shimatsu). The bacterial culture was added to a solution of 15% fetal bovine serum in DMEM to a final bacteria concentration of approximately 10^6/mL. An aliquot (0.8 mL) was transferred to a 1.5 mL snap-top polyethylene tube. An aliquot (0.004-0.040 mL) of the test compound stock solution prepared in water, ethanol or dimethylsulfoxide at 0.80-8.0 mM was added to the tube. Compounds were tested at a concentration of 16 μM. The tubes were placed in a light device as described in EXAMPLE 1 and irradiated with 1.3 J/cm^2, 1.2 J/cm^2, and finally 2.5 J/cm^2, for a total of 5 J/cm^2. 150 μL were removed for testing after each pulse period. Sterile 13 mL dilution tubes were prepared; each test compound required one tube with 0.4 mL of LB broth and four tubes containing 0.5 mL of LB broth. […] The colony forming units were then counted the following morning and the titer of the phage remaining after phototreatment was calculated based on the dilution factors. […]
Compound,reduction in platelet aggregation from the day 1 control [1],log kill of Pseudomonas [2] [logs]
"Cc1oc2c(C)c3oc(=O)cc(C)c3cc2c1COCCN [Compound 2, 4′-(4-amino-2-oxa)butyl-4,5′,8-trimethylpsoralen]",approximately 8%,–
"Cc1oc2c(C)c3oc(=O)cc(C)c3cc2c1CN [AMT, 4′-Aminomethyl-4,5′,8-trimethylpsoralen, reference compound]",–,5.2

# From patent US6544727B1, “Methods and devices for the removal of psoralens from blood products” (Cerus Corporation, priority 1995, dated 2003)
